Measurements: patent US20250313556A1, “CERTAIN CHEMICAL ENTITIES, COMPOSITIONS, AND METHODS” (MRJA THERAPEUTICS, INC., priority 2022, published 2025)

Biological target: c-KIT (Homo sapiens, UniProt P10721)
Assay: c-KIT ADP-Glo biochemical assay
Procedure: The inhibitory activity against c-KIT was measured using ADP-Glo assay. The percent (%) inhibition at each concentration of compound is calculated based on and relative to the luminescence signal in the Max and Min control wells contained within each assay plate. The Max control wells contain enzyme and substrate as 0% inhibition, and the Min control wells only contain substrate without enzyme as 100% inhibition. The concentrations and % inhibition values for tested compounds are plotted and the concentration of compound required for 50% inhibition (IC50) is determined with a four-parameter logistic dose response equation. The ability of the compounds in Table 1 to inhibit c-KIT was determined.

Chain of c-KIT (P10721 26-976): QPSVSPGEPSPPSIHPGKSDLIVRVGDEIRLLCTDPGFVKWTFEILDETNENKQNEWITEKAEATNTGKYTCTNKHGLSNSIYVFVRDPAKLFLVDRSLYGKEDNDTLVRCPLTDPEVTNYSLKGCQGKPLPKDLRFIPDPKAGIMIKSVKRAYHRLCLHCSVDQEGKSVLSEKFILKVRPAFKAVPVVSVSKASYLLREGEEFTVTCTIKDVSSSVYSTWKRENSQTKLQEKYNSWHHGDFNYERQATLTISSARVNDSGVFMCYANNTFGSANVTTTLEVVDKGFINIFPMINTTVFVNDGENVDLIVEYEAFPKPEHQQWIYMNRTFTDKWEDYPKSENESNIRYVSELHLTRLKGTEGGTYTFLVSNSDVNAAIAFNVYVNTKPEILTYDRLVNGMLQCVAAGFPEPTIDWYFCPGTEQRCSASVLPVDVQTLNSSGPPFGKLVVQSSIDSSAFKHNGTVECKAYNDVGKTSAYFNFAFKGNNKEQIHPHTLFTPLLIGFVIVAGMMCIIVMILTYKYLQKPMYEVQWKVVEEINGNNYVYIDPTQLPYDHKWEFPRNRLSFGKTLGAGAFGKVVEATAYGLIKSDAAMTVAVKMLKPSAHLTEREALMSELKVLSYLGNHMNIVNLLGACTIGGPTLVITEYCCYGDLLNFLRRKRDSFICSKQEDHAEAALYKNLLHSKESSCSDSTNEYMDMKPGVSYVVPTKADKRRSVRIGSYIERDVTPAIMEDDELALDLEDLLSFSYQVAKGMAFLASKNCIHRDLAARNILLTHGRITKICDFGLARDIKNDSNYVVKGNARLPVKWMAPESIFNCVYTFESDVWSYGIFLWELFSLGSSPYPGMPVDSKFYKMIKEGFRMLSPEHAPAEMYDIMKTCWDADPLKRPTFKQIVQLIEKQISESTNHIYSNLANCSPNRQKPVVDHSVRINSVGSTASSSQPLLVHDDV

Compound	IC50 (comparison of prior art compounds (WO 2013/033167) with example 3 (C003)) [nM]	IC50 (class ranges) [nM]
COC(=O)N1CC(c2nc(-c3ccc(C)c(NC(=O)c4cnc5ccccn45)c3)no2)C1 [methyl 3-(3-(3-(imidazo[1,2-a]pyridine-3-carboxamido)-4-methylphenyl)-1,2,4-oxadiazol-5-yl)azetidine-1-carboxylate, reference compound]	172	
COC(=O)N1CC(c2nc(-c3cc(F)c(C)c(NC(=O)c4cnc5ccc(N6CCOCC6)cn45)c3)no2)C1 [Compound C009, methyl 3-(3-(3-fluoro-4-methyl-5-(6-morpholinoimidazo[1,2-a]pyridine-3-carboxamido)phenyl)-1,2,4-oxadiazol-5-yl)azetidine-1-carboxylate]		100 to 1000
